Results reported in patent US20170101431A1, “NUCLEOSIDE DERIVATIVES FOR THE TREATMENT OF CANCER” (IDENIX PHARMACEUTICALS LLC, priority 2014, published 2017).

Assays:
Assay type in all cases: cell-based
CCRF-CEM = assay: In vitro inhibition, CellTiter-Glo (CTG) assay, CCRF-CEM; details: 72 hr exposure
Protocol: (§1) Cells were grown in RPMI-1640 supplemented with L-Glutamine and 10% FBS of the following cancer cell lines:
(§2) CCRF-CEM; CCRF-CEM-cytarabine resistant; HL-60;
(§3) 18, 96 well plates of each cell line were seeded with the optimized number of cells per well in a total volume of 50 μL per well. The plates were left overnight. Plate wells were seeded with 100 μL media for media control. The following day, cells were exposed to test compounds as described below. At the same time as drug exposure, a CTG assay was conducted on the 18th plate for the 0 hr count.
(§4) The compounds were added to cells and medium already on the plate to give desired final concentrations. 50 μL media were added to cell control wells, and 50 μL of mix added to vehicle control wells. 10 μM Doxorubicin was added to appropriate wells as control. Cells exposed to test compound were incubated at 37° C. for 72 hr followed by a CTG assay.
(§5) At the end of the 72 hr exposure period, plates were removed for a CellTiter-Glo (CTG) assay from a 37° C., 5% CO2 incubator and placed on the bench at room temperature for 30 mins. 100 μL of CellTiter-Glo reagent was added and mixed for 2 mins, followed by a further 10 min incubation at room temperature. Luminescence was recorded using Synergy 4.0.

[1] = test system: CCRF-CEM-cytarabine resistant; assay: In vitro inhibition, CellTiter-Glo (CTG) assay, CCRF-CEM-cytarabine resistant; details: 72 hr exposure
Protocol: as §1, §2, §3, §4, §5

HL-60 = assay: In vitro inhibition, CellTiter-Glo (CTG) assay, HL-60; details: HL-60, 72 hr exposure
Protocol: as §1, §2, §3, §4, §5

| SMILES | IC50 (CCRF-CEM; Homo sapiens) | IC50 [1] | IC50 (HL-60; Homo sapiens) | IC50 ([1]; 72 h) | IC50 (HL-60; Homo sapiens, HL-60, 72 h) | IC50 (CCRF-CEM) | IC50 (HL-60) |
| --- | --- | --- | --- | --- | --- | --- | --- |
| Nc1ccn([C@@H]2O[C@H](COP(=O)(OCc3cnc([N+](=O)[O-])s3)OCc3cnc([N+](=O)[O-])s3)[C@@H](O)[C@@H]2O)c(=O)n1 [Compound 24b, [(2R,3S,4S,5R)-5-(4-amino-2-oxo-pyrimidin-1-yl)-3,4-dihydroxy-tetrahydrofuran-2-yl]methyl bis[(2-nitrothiazol-5-yl)methyl]phosphate] | < 1 µM | 10 to 25 µM | < 1 µM | – | – | – | – |
| Nc1ccn([C@@H]2O[C@H](COP(=O)(NCc3ccccc3)OCc3ccc([N+](=O)[O-])o3)[C@@H](O)[C@@H]2O)c(=O)n1 (single isomer, unassigned) [25 (diastereoisomer 1)] | < 1 µM | – | – | 10 to 25 µM | 1 to 10 µM | – | – |
| Cn1c(COP(=O)(OCc2cnc([N+](=O)[O-])s2)OC[C@H]2O[C@@H](n3ccc(N)nc3=O)[C@@H](O)[C@@H]2O)cnc1[N+](=O)[O-] (stereo partly drawn) [Compound 24c, [(2R,3S,4S,5R)-5-(4-amino-2-oxo-pyrimidin-1-yl)-3,4-dihydroxy-tetrahydrofuran-2-yl]methyl (3-methyl-2-nitro-imidazol-4-yl)methyl (2-nitrothiazol-5-yl)methyl phosphate] | < 1 µM | 10 to 25 µM | < 1 µM | – | – | – | – |
| C[C@H](NP(=O)(OCc1ccc([N+](=O)[O-])s1)OC[C@H]1O[C@@H](n2ccc(N)nc2=O)[C@@H](O)[C@@H]1O)C(=O)OCc1ccccc1 (single isomer, unassigned) [24f (diastereoisomer 1)] | < 1 µM | – | – | 10 to 25 µM | 10 to 25 µM | – | – |
| C[C@H](NP(=O)(OCc1ccc([N+](=O)[O-])s1)OC[C@H]1O[C@@H](n2ccc(N)nc2=O)[C@@H](O)[C@@H]1O)C(=O)OCc1ccccc1 (single isomer, unassigned) [24f (diastereoisomer 2)] | – | 10 to 25 µM | – | – | – | < 1 µM | 10 to 25 µM |
| Nc1ccn([C@@H]2O[C@H](COP(=O)(NCc3ccccc3)OCc3ccc([N+](=O)[O-])o3)[C@@H](O)[C@@H]2O)c(=O)n1 (single isomer, unassigned) [25 (diastereoisomer 2)] | – | 10 to 25 µM | – | – | – | < 1 µM | 1 to 10 µM |
| CCOC(=O)[C@H](C)NP1(=O)OC[C@H]2O[C@@H](n3cnc4c(N)nc(Cl)nc43)[C@@H](F)[C@@H]2O1 (stereo partly drawn) [Compound 10, Ethyl (2S)-2-[[(4aR6R,7S,7aR)-6-(6-amino-2-chloro-purin-9-yl)-7-fluoro-2-oxo-4a,6,7,7a-tetrahydro-4H-furo[3.2-d][1,3,2]dioxaphosphinin-2-yl]amino]propanoate] | < 1 µM | 25 to 100 µM | – | – | 1 to 10 µM | – | – |
| C[C@H](NP1(=O)OC[C@H]2O[C@@H](n3cnc4c(N)nc(Cl)nc43)[C@@H](F)[C@@H]2O1)C(=O)OCc1ccccc1 (single isomer, unassigned) [Compound 26b] | – | 1 to 10 µM | – | – | – | < 1 µM | < 1 µM |
| Nc1ccn([C@@H]2O[C@H](COP(=O)(OCc3ccc([N+](=O)[O-])o3)OCc3ccc([N+](=O)[O-])o3)[C@@H](O)[C@@H]2O)c(=O)n1 [Compound 24e, [(2R,3S,4S,5R)-5-(4-amino-2-oxo-pyrimidin-1-yl)-3,4-dihydroxy-tetrahydrofuran-2-yl]methyl bis[(5-nitro-2-furyl)methyl]phosphate] | < 1 µM | 10 to 25 µM | < 1 µM | – | – | – | – |
| CCOC(=O)[C@H](C)NP1(=O)OC[C@H]2O[C@@H](n3cnc4c(N)nc(Cl)nc43)[C@@H](F)[C@@H]2O1 (stereo partly drawn) [Compound 11, Ethyl (2S)-2-[[(4aR6R,7S,7aR)-6-(6-amino-2-chloro-purin-9-yl)-7-fluoro-2-oxo-4a,6,7,7a-tetrahydro-4H-furo[3.2-d][1,3,2]dioxaphosphinin-2-yl]amino]propanoate] | – | 1 to 10 µM | – | – | – | < 1 µM | < 1 µM |
| C[C@H](NP1(=O)OC[C@H]2O[C@@H](n3cnc4c(N)nc(Cl)nc43)[C@@H](F)[C@@H]2O1)C(=O)OCc1ccccc1 (single isomer, unassigned) [Compound 26a] | < 1 µM | – | – | 1 to 10 µM | < 1 µM | – | – |
